Earlier results in patent US12409121B2, “Formulations and methods for preparing stable cosmetic compositions” (Spinart, LLC, priority 2019, dated 2025).

N=C(N)NCCCC(N)C(=O)O (centres unmarked) [Arginine]
α-CO2H pKa1 (carboxylic group): 2.18
α-NH3 pKa2 (α-amino group): 9.09
